Patent US7834019B2, “Substituted pyrazolo[3,4-d]pyrimidinone derivatives” (Banyu Pharmaceutical Co., Ltd., priority 2006, dated 2010)

System: Cdc2 (Cdk1) tyrosine 15-phosphorylation
Experiment: Cdc2 (Cdk1) tyrosine 15-phosphorylation-inhibitory effect in NCI-H1299 cells + camptothecin (ELISA)
Type: cell-based
Settings: Homo sapiens, camptothecin 200 nM for 16 hours, then test compound with nocodazole for 8 hours, read-out: Cdc2-Y15 Phosphorylation-Inhibitory Effect (H1299, + camptothecin) (EC50)
Description: Pharmaceutical Text 2 (Method of Determining Drug Potency in Cells (Cdc2 (Cdk1) Tyrosine 15-Phosphorylation-Inhibitory Effect))
Fetal bovine serum (FBS) was obtained from Morgate; media RPMI1640 and DMEM were from Invitrogen; camptothecin was from Sigma; gemcitabine was from Nippon Eli Lilly; nocodazole and protease inhibitor cocktail were from Sigma; rabbit anti-Cdc2 antibody and mouse anti-Cdc2 antibody were from Santa Cruz Biotechnology; rabbit anti-tyrosine 15-phosphorylated Cdc2 antibody and horseradish peroxidase-labeled anti-mouse IgG antibody were from Cell Signaling Technology; sure blue reserve TMB peroxidase substrate was from Kirkegaard and Perry Laboratories. […]
In the method of using NCI-H1299 cells, the cells were suspended in RPMI1640 containing 10% FBS, and the cell suspension was applied to a 96-well Nunclondelta-processed plastic plate (bought from Nunc), in an amount of 2000 cells/100 μL/well, in which the cells were incubated overnight in 5% CO2-95% air at 37° C. […] Cdc2 was determined through ELISA as follows: A rabbit anti-Cdc2 antibody solution, which had been diluted 200-fold with 50 mM carbonate-bicarbonate buffer (pH 9.6), was applied to a 96-well maxisorpimmuno plate (bought from Nunc), in an amount of 50 μL/well, and statically kept overnight at 4° C. so as to fix the antibody on the plate. […]

EC50: 68 nM
SMILES: C=CCn1c(=O)c2cnc(Nc3ccc(N4CCN(C)CC4)cc3)nc2n1-c1cccc(C(C)(C)O)n1 [Example 53, 2-allyl-1-[6-(1-hydroxy-1-methylethyl)pyridin-2-yl]-6-{[4-(4-methylpiperazin-1-yl)phenyl]amino}-1,2-dihydro-3H-pyrazolo[3,4-d]pyrimidin-3-one]
